# Test results as given in patent US20060216258A1, “Water-in-silicone emulsion compositions” (priority 2005, published 2006).
# Assay: human repetitive patch test (cumulative irritation)
# Conditions: undiluted product under semi-occlusive patches daily over twelve-day test period, about 100 μl per patch; SLS value is average of two studies
# Method: The technique involves application of undiluted test products under semi-occlusive patches daily over a twelve-day test period. Approximately 100 μl of test product is applied to each non-woven cotton pad and secured to the skin with porous, hypoallergenic tape. An undosed patch served as a negative control, while a 1.0% sodium lauryl sulfate (SLS) patch served as the positive control. Each day, patches were removed and test sites professionally graded for irritation prior to re-patching.
smiles,measurement,value
"CCCCCCCCCCCCOS(=O)(=O)[O-].[Na+] [SLS, sodium lauryl sulfate]",Cumulative Irritation Score,514
